Assay results: PubChem BioAssay AID743476 (The Scripps Research Institute Molecular Screening Center, 2014)
Calls of active or inactive are those of the source. How the calls were made is not given here.

Tested on: CCHF-vOTU
Assay: PubChem AID 743476
Settings: Recombinant CCHFV vOTU, PEP-AMC fluorescence cleavage, with PEP-AMC substrate, stronger effect = higher value

Structure (SMILES): O=C1Cc2ccccc2C(=O)N1CCc1ccccc1
- inhibition (Assay 1, at 1.14 µM): 12.7% (inactive)
- inhibition (Assay 2, at 1.14 µM): 57.5%

Structure (SMILES): COc1ccc2noc3c2c1C(=O)c1ccccc1-3
- inhibition (Assay 1, at 3.08 µM): 16.5% (inactive)
- inhibition (Assay 2, at 3.08 µM): 15.2% (inactive)
- inhibition (Assay 3, at 6.16 µM): 64.3%

Structure (SMILES): S=C(Nc1ccc(Cl)cc1)Nc1cccc2cnccc12
- inhibition (Assay 1, at 6.44 µM): -17.9% (inactive)
- inhibition (Assay 2, at 6.44 µM): 5.81% (inactive)
- inhibition (Assay 3, at 12.88 µM): 7.7% (inactive)

Structure (SMILES): COc1cc(NC(=O)COC(=O)c2ccc([N+](=O)[O-])s2)cc(OC)c1OC
- inhibition (Assay 1, at 6.6 µM): 7.4% (inactive)
- inhibition (Assay 2, at 6.6 µM): 4.53% (inactive)
- inhibition (Assay 3, at 13.2 µM): 11.9% (inactive)

Structure (SMILES): O=C1Cc2ccccc2C(=O)N1Cc1ccccc1
- inhibition (Assay 1, at 1.28 µM): 38.7%
- inhibition (Assay 2, at 1.28 µM): 50.3%

Structure (SMILES): Cc1ccccc1-c1cc2c(nn1)-c1ccccc1C2=O
- inhibition (Assay 1, at 0.46 µM): 27.6%
- inhibition (Assay 2, at 0.46 µM): 24.5%

Structure (SMILES): O=C1OC(Nc2cc(Br)cc3cccnc23)c2ccccc21 (centres undefined)
- inhibition (Assay 1, at 5.23 µM): 21.7%
- inhibition (Assay 2, at 5.23 µM): 16.9% (inactive)
- inhibition (Assay 3, at 10.46 µM): 10.9% (inactive)

Structure (SMILES): Cn1nc(-c2ccccn2)nc2c(=O)n(C)c(=O)nc1-2
- inhibition (Assay 1, at 0.37 µM): 63.3%
- inhibition (Assay 2, at 0.37 µM): 56.2%

Structure (SMILES): O=C(NC1=C(NC2CCS(=O)(=O)C2)C(=O)c2ccccc2C1=O)c1ccccc1 (centres undefined)
- inhibition (Assay 1, at 3.9 µM): 4.88% (inactive)
- inhibition (Assay 2, at 3.9 µM): 22.6%

Structure (SMILES): CC1(C)C=C2C(=NN(c3ccccc3)C(N)=C2C#N)CO1
- inhibition (Assay 1, at 1.83 µM): -4.71% (inactive)
- inhibition (Assay 2, at 1.83 µM): 23.4%

Structure (SMILES): CCOC(=O)C1=C(COC(=O)c2ccc([N+](=O)[O-])s2)NC(=O)NC1C (centres undefined)
- inhibition (Assay 1, at 7.84 µM): 5.42% (inactive)
- inhibition (Assay 2, at 7.84 µM): 9.9% (inactive)
- inhibition (Assay 3, at 15.68 µM): 6% (inactive)

Structure (SMILES): O=C(/C=C/c1ccc(O)cc1)c1ccc(NC2=C(N3CCCCC3)C(=O)c3ccccc3C2=O)cc1
- inhibition (Assay 1, at 3.35 µM): 14.3% (inactive)
- inhibition (Assay 2, at 3.35 µM): 16.3% (inactive)
- inhibition (Assay 3, at 6.7 µM): 33.6%

Structure (SMILES): COc1cc(NCCCC(C)N)c2ncccc2c1 (centres undefined)
- inhibition (Assay 1, at 2.52 µM): 25.6%
- inhibition (Assay 2, at 2.52 µM): 0.7% (inactive)
- inhibition (Assay 3, at 5.04 µM): -1.2% (inactive)

Structure (SMILES): COc1ccccc1NC(=O)COC(=O)c1ccc([N+](=O)[O-])s1
- inhibition (Assay 1, at 9.94 µM): -1.05% (inactive)
- inhibition (Assay 2, at 9.94 µM): 9.34% (inactive)
- inhibition (Assay 3, at 19.88 µM): 20%

Structure (SMILES): CC(=O)c1ccc(NC(=S)Nc2cccc3cnccc23)cc1
- inhibition (Assay 1, at 6.84 µM): 0.13% (inactive)
- inhibition (Assay 2, at 6.84 µM): 3.01% (inactive)
- inhibition (Assay 3, at 13.68 µM): 6.6% (inactive)

Structure (SMILES): O=C(COC(=O)c1ccc([N+](=O)[O-])s1)Nc1ncc(C(F)(F)F)cc1Cl
- inhibition (Assay 1, at 8.84 µM): 23.2%
- inhibition (Assay 2, at 8.84 µM): 19.8% (inactive)
- inhibition (Assay 3, at 17.68 µM): 30.5%

Structure (SMILES): NS(=O)(=O)c1ccc(NC(=O)COC(=O)c2ccc([N+](=O)[O-])s2)cc1
- inhibition (Assay 1, at 8.31 µM): 70.6%
- inhibition (Assay 2, at 8.31 µM): 24.6%
- inhibition (Assay 3, at 16.62 µM): 23.1%

Structure (SMILES): COC(CNC(=O)c1ccc2c3c(onc13)-c1ccccc1C2=O)OC
- inhibition (Assay 1, at 3.49 µM): 16.6% (inactive)
- inhibition (Assay 2, at 3.49 µM): 12.4% (inactive)
- inhibition (Assay 3, at 6.98 µM): 35.5%

Structure (SMILES): CCn1nc(/C=C/c2ccccc2)nc2c(=O)n(C)c(=O)nc1-2
- inhibition (Assay 1, at 0.28 µM): 58.4%
- inhibition (Assay 2, at 0.28 µM): 91.9%

Structure (SMILES): O=S(=O)(Nc1cc2nc3ccccc3nc2n1Cc1ccccc1)c1ccc(Cl)cc1
- inhibition (Assay 1, at 2.57 µM): 72.3%
- inhibition (Assay 2, at 2.57 µM): -112% (inactive)
- inhibition (Assay 3, at 5.14 µM): 47.9% (inactive)

Structure (SMILES): Cc1ccc(NC2=CC(=O)C(=O)c3ccccc32)cc1
- inhibition (Assay 1, at 7.14 µM): 20%
- inhibition (Assay 2, at 7.14 µM): 51.9%

Structure (SMILES): O=C(COC(=O)c1ccc([N+](=O)[O-])s1)NCc1ccc(F)cc1
- inhibition (Assay 1, at 8.08 µM): -23.4% (inactive)
- inhibition (Assay 2, at 8.08 µM): 7.84% (inactive)
- inhibition (Assay 3, at 2.56 µM): 11.4% (inactive)

Structure (SMILES): CCC(CNc1cc(OC)cc2cccnc12)NC1CCCCC1 (centres undefined)
- inhibition (Assay 1, at 6.32 µM): -27% (inactive)
- inhibition (Assay 2, at 6.32 µM): 13.6% (inactive)
- inhibition (Assay 3, at 12.64 µM): 52.4%

Structure (SMILES): O=C(COC(=O)c1ccc([N+](=O)[O-])s1)Nc1ccc(F)cc1
- inhibition (Assay 1, at 7.8 µM): 9.26% (inactive)
- inhibition (Assay 2, at 7.8 µM): 9.2% (inactive)
- inhibition (Assay 3, at 15.6 µM): 17.4% (inactive)
